From US20200345021A1, “METHOD AND SYSTEM FOR ENHANCING THE EFFICACY USING IONIZED/A[…] PEROXIDE IN REDUCING MICROBIAL POPULATIONS, METHOD OF USE THEREOF” (priority 2019, published 2020)
Several values for one entry are separate records, joined by “and”; a condition that tells them apart may be missing. Identical values can stand only once. Like-named read-outs stand apart in the source and are kept apart here. Marks after values point to notes of the source that are not given here.

How the values were obtained:
[1] = From the text: Specifically, a scanning mobility particle sizer (SMPS Model 3080, TSI inc., Shoreview, Minn., USA) and an aerodynamic particle sizer (APS Model 3321, TSI Inc.) were connected to the treatment chamber through an access port in the back of the treatment chamber to measure droplet sizes ranging from 2.5 to 210 nm, and from 0.5 to 20 μm, respectively.
S. Typhimurium = conditions: for Populations of S. Typhimurium, treated / Reductions of S. Typhimurium: with cold plasma
From the text: To minimize the risk of possible bacteria becoming airborne during treatments, attenuated and non-pathogenic bacteria were used in the study. Two strains of non-pathogenic S. Typhimurium (ATCC 53647 and 53648) and three strains of L. innocua (ATCC 33090, ATCC 51742 and ATCC BAA680) were obtained from American Type Culture Collection (ATCC) (Manassas, Va., USA). Further studies used E. coli O157:H7 (ATCC 700728), S. Typhimurium (ATCC 53647 and 53648), and L. innocua (ATCC 33090) obtained from American Type Culture Collection (ATCC) (Manassas, Va., USA) and maintained as a part of the culture collection at the USDA Eastern Regional Research Center (Wyndmoor, Pa. USA). The bacteria were made to be resistant to nalidixic acid by successive growth in Trypic Soy Broth (TSB) (Difco, Sparks, Md., USA) with increasing nalidixic acid concentrations. All strains were stored at −80° C. in 1 mL of TSB containing 10% glycerol. Working cultures of S. Typhimurium and L. innocua were maintained in 9 mL TSB (supplemented with 100 μg/mL nalidixic acid for S. Typhimurium) at 4° C. after incubating at 37° C. for […], respectively, and sub-cultured each time.
Each strain of S. Typhimurium and L. innocua was cultured in 9 mL TSB (supplemented with 100 μg/mL nalidixic acid for S. Typhimurium) and incubated at 37° C. for 40 h and 48 h, respectively, harvested by centrifugation at 4000×g for 10 min at 4° C., and resuspended in 9 mL sterile Buffered Peptone Water (BPW; Difco). The pellets were resuspended in BPW to form cell suspensions with a final concentration of 108˜10^9 CFU/mL. Subsequently, suspended pellets of two strains of Salmonella and three strains of L. innocua were combined to obtain two separate culture cocktails.
Grape tomatoes, granny smith apples, romaine lettuce and cantaloupes were purchased from local markets (Philadelphia, Pa., USA) and kept at 10° C. prior to use. Fruits and vegetables were removed from 10° C. refrigeration and equilibrated to ambient temperature before being inoculated. Romaine lettuce was divided into upper green leaf and midrib tissues. Six tomatoes, six pieces (2×2 cm) of apple skins, five pieces (3×3 cm) of Romaine lettuce upper leaves, five pieces (3 cm length) of Romaine lettuce midrib area and six pieces (2×2 cm) of cantaloupe rinds with 2×3 mm thickness of flesh were used for each treatment per replicate. Bach piece w as spot inoculated with 10 μL of Salmonella and L. innocua by depositing droplets with a micropipette. The inoculated samples were dried in a bio-hood for 1 h (for tomato surfaces, romaine lettuce, apple skins and cantaloupe rinds) or 2 h (for tomato stem scars) at ambient temperature.
Produce items were placed onto a sterile test tube rack with the inoculated area facing up and the rack with produce pieces were placed inside of a treatment chamber (12×12×24 inch).
For tomato surfaces and apple skins, the treatment times (spray times) were set as 5, 8 and 10 s followed by 30 min dwell time. For upper leaves and midrib tissues of Romaine lettuce, the treatment times were 10, 20, 30 and 60 s followed by 30 min dwell time. For cantaloupe rinds, the treatment times were set as 10, 30 and 60 s followed by 30 min dwell time. For tomato stem scars, the treatment procedure included 5.8, 10, 20, 30, 60 s followed by 30 min dwell time, 6 cycles composed of 10 s treatment time followed by 10 min dwell time per cycle, and 3 cycles composed of 20 s treatment time followed by 20 min dwell time per cycle. A fan (E.Z.FAN, FP-108-1, Common Wealth Industrial Corp., Taiwan) was used in the chamber to facilitate the uniform distribution of mist during dwell time.
After each treatment, the tomato stem scars and surfaces with the inoculated bacteria were removed using a pair of sterile scissors.

[2] = treatment chamber, immediately after introduction
[3] = Granny Smith apple skins, treatment time 5 s + 30 min dwell
[4] = Romaine lettuce leaves (upper leaf), treatment time 10 s + 30 min dwell
[5] = Romaine lettuce leaves (upper leaf), treatment time 20 s + 30 min dwell
[6] = Romaine lettuce leaves (upper leaf), treatment time 60 s + 30 min dwell
[7] = Romaine lettuce midrib area, treatment time 10 s + 30 min dwell
[8] = Romaine lettuce midrib area, treatment time 20 s + 30 min dwell
[9] = Romaine lettuce midrib area, treatment time 60 s + 30 min dwell
[10] = cantaloupe rinds, treatment time 10 s + 30 min dwell
[11] = cantaloupe rinds, treatment time 60 s + 30 min dwell
[12] = grape tomato stem scars, 10s × 6 (6 cycles of 10 s spray time followed by 10 min dwell time)
[13] = grape tomato stem scars, treatment time 8 s + 30 min dwell
[14] = grape tomato stem scars, treatment time 10 s + 30 min dwell
[15] = grape tomato stem scars, treatment time 20 s + 30 min dwell
[16] = grape tomato stem scars, treatment time 30 s + 30 min dwell
[17] = grape tomato surfaces, treatment time 5 s + 30 min dwell

OO [H2O2, hydrogen peroxide]
Nanosize droplets remained in the treatment chamber ([1]; after 30 min (end of treatment)): about 8% | Share of droplets in the range of <5 μm ([1]; micrometer range, immediately after introduction): About 80% | Mean diameter of droplets in the micrometer range [1, 2]: 3.0 μm | Mean diameter of nanosize droplets [1, 2]: 40.3 nm | Mode (peak) of nanosize droplets [1, 2]: 33.4 nm | Mode of droplets in the micrometer range [1, 2]: 4.0 μm | Total number of droplets in micrometer range (0.5-20 μm) [1, 2]: 4390 #/cc | Total number of droplets in the nanosize range [1, 2]: 84,000 #/cc | Populations of S. Typhimurium, treated (S. Typhimurium; [3]): 4.09 ± 0.13^a log CFU/piece | Reductions of S. Typhimurium (S. Typhimurium; [3]): 1.63 ± 0.35^b log CFU/piece | Populations of S. Typhimurium, treated (S. Typhimurium; Granny Smith apple skins, treatment time 8 s + 30 min dwell, ND: not detectable (detection limit 0.70 log CFU/piece)): < 0.70 log CFU/piece | Reductions of S. Typhimurium (S. Typhimurium; Granny Smith apple skins, treatment time 8 s + 30 min dwell, listed as hydrogen peroxide (H2O2) with cold plasma): more than 5 log CFU/piece | Reductions of S. Typhimurium (S. Typhimurium; Granny Smith apple skins, treatment time 8 s + 30 min dwell, listed as ionized hydrogen peroxide): > 5 log CFU/piece | Populations of S. Typhimurium, treated (S. Typhimurium; [4]): 5.45 ± 0.34^a log CFU/piece | Reductions of S. Typhimurium (S. Typhimurium; [4]): 0.79 ± 0.16^c log CFU/piece | Populations of S. Typhimurium, treated (S. Typhimurium; [5]): 3.98 ± 0.37^b log CFU/piece | Reductions of S. Typhimurium (S. Typhimurium; [5]): 1.98 ± 0.24^b log CFU/piece | Populations of S. Typhimurium, treated (S. Typhimurium; Romaine lettuce leaves (upper leaf), treatment time 30 s + 30 min dwell): 3.54 ± 0.11^b log CFU/piece | Reductions of S. Typhimurium (S. Typhimurium; Romaine lettuce leaves (upper leaf), treatment time 30 s + 30 min dwell, listed as ionized hydrogen peroxide): 2.86 log CFU/piece and 2.86 ± 0.17^a log CFU/piece | Populations of S. Typhimurium, treated (S. Typhimurium; [6]): 3.57 ± 0.25^b log CFU/piece | Reductions of S. Typhimurium (S. Typhimurium; [6]): 2.79 ± 0.20^a log CFU/piece | Populations of S. Typhimurium, treated (S. Typhimurium; [7]): 4.81 ± 0.22^a log CFU/piece | Reductions of S. Typhimurium (S. Typhimurium; [7]): 1.53 ± 0.23^c log CFU/piece | Populations of S. Typhimurium, treated (S. Typhimurium; [8]): 4.09 ± 0.25^b log CFU/piece | Reductions of S. Typhimurium (S. Typhimurium; [8]): 2.04 ± 0.33^b log CFU/piece | Populations of S. Typhimurium, treated (S. Typhimurium; Romaine lettuce midrib area, treatment time 30 s + 30 min dwell): 2.54 ± 0.32^c log CFU/piece | Reductions of S. Typhimurium (S. Typhimurium; Romaine lettuce midrib area, treatment time 30 s + 30 min dwell, listed as ionized hydrogen peroxide): 3.63 log CFU/piece and 3.63 ± 0.21^a log CFU/piece | Populations of S. Typhimurium, treated (S. Typhimurium; [9]): 2.94 ± 0.18^c log CFU/piece | Reductions of S. Typhimurium (S. Typhimurium; [9]): 3.13 ± 0.48^a log CFU/piece | Populations of S. Typhimurium, treated (S. Typhimurium; [10]): 4.39 ± 0.32^a log CFU/piece | Reductions of S. Typhimurium (S. Typhimurium; [10]): 1.50 ± 0.21^b log CFU/piece | Populations of S. Typhimurium, treated (S. Typhimurium; cantaloupe rinds, treatment time 30 s + 30 min dwell): 4.09 ± 0.24^a log CFU/piece | Reductions of S. Typhimurium (S. Typhimurium; cantaloupe rinds, treatment time 30 s + 30 min dwell, listed as ionized hydrogen peroxide): 2.48 log CFU/piece and 2.48 ± 0.68^a log CFU/piece | Populations of S. Typhimurium, treated (S. Typhimurium; [11]): 3.23 ± 0.28^b log CFU/piece | Reductions of S. Typhimurium (S. Typhimurium; [11]): 2.44 ± 0.32^a log CFU/piece | Populations of S. Typhimurium, treated (S. Typhimurium; [12]): 3.89 ± 0.39^ab log CFU/piece | Reductions of S. Typhimurium (S. Typhimurium; [12]): 2.19 ± 0.41^b log CFU/piece | Populations of S. Typhimurium, treated (S. Typhimurium; grape tomato stem scars, listed as printed 20s × 6 (title: 20s×3, 3 cycles of 20 s spray time with 20 min dwell time)): 3.60 ± 0.42^b log CFU/piece | Reductions of S. Typhimurium (S. Typhimurium; grape tomato stem scars, listed as printed 20s × 6 (title: 20s×3, 3 cycles of 20 s spray time with 20 min dwell time), listed as ionized hydrogen peroxide): 2.73 log CFU/piece and 2.73 ± 0.28^a log CFU/piece | Populations of S. Typhimurium, treated (S. Typhimurium; grape tomato stem scars, treatment time 5 s + 30 min dwell): 4.26 ± 0.89^ab log CFU/piece | Reductions of S. Typhimurium (S. Typhimurium; grape tomato stem scars, treatment time 5 s + 30 min dwell, listed as ionized hydrogen peroxide): 1.06 log CFU/piece and 1.06 ± 0.35^d log CFU/piece | Populations of S. Typhimurium, treated (S. Typhimurium; [13]): 4.23 ± 0.31^ab log CFU/piece | Reductions of S. Typhimurium (S. Typhimurium; [13]): 1.22 ± 0.28^d log CFU/piece | Populations of S. Typhimurium, treated (S. Typhimurium; [14]): 4.26 ± 0.71^ab log CFU/piece | Reductions of S. Typhimurium (S. Typhimurium; [14]): 1.20 ± 0.14^d log CFU/piece | Populations of S. Typhimurium, treated (S. Typhimurium; [15]): 4.71 ± 0.26^ab log CFU/piece | Reductions of S. Typhimurium (S. Typhimurium; [15]): 1.51 ± 0.34^cd log CFU/piece | Populations of S. Typhimurium, treated (S. Typhimurium; [16]): 4.31 ± 0.20^a log CFU/piece | Reductions of S. Typhimurium (S. Typhimurium; [16]): 1.85 ± 0.11^bc log CFU/piece | Populations of S. Typhimurium, treated (S. Typhimurium; grape tomato stem scars, treatment time 60 s + 30 min dwell): 3.85 ± 0.66^ab log CFU/piece | Reductions of S. Typhimurium (S. Typhimurium; grape tomato stem scars, treatment time 60 s + 30 min dwell, listed as ionized hydrogen peroxide): 2.16 log CFU/piece and 2.16 ± 0.43^b log CFU/piece | Populations of S. Typhimurium, treated (S. Typhimurium; [17]): 4.44 ± 0.25^a log CFU/piece | Reductions of S. Typhimurium (S. Typhimurium; [17]): 1.84 ± 0.43^b log CFU/piece | Populations of S. Typhimurium, treated (S. Typhimurium; grape tomato surfaces, treatment time 8 s + 30 min dwell, ND: not detectable (detection limit 0.70 log CFU/piece)): < 0.70 log CFU/piece | Reductions of S. Typhimurium (S. Typhimurium; grape tomato surfaces, treatment time 8 s + 30 min dwell, listed as hydrogen peroxide (H2O2) with cold plasma): more than 5 log CFU/piece | Reductions of S. Typhimurium (S. Typhimurium; grape tomato surfaces, treatment time 8 s + 30 min dwell, listed as ionized hydrogen peroxide): > 5 log CFU/piece | Reductions of S. Typhimurium (S. Typhimurium; grape tomato surfaces, treatment time 10 s + 30 min dwell): 5.65 ± 0.21^a log CFU/piece | log reduction of Salmonella on other fresh produce items (S. Typhimurium; produce other than smooth surfaces of tomatoes and apples, applied for a longer time period): ≤ 3.6 log | log reductions of Salmonella on rough surfaces (S. Typhimurium; rough surfaces (tomato stem scars, cantaloupe rinds), similar treatment times): 2.8-3.6 log | log reductions of Salmonella on smooth surfaces (S. Typhimurium; smooth surfaces (apples, tomatoes), 8-10 s treatment time + 30 min dwell time): greater than 5 log
